# Assay: Example 33: Film A (no incorporated booster) in Developer A versus Film B (Compound XIII) in Developer B, 80 seconds at 30° C.
# Conditions: Table III data
# Experimental: This example was carried out using photographic elements similar to those of Examples 1 to 32 except that the nucleating agent employed was a mixture of the hydrazine compound: [drawing 33] at a coverage of 0.0121 g/m^2 and the hydrazine compound: [drawing 34] at a coverage of 0.00237 g/m^2.
# A film designated Film A was prepared with no incorporated booster compound, while a film designated Film B contained 0.0861 g/m^2 of Compound XIII. A developing solution, designated Developer A, was formulated from the following ingredients: […]
# A second developing solution, designated Developer B, differed from Developer A in that the 3-diethylamino-1,2-propanediol was omitted.
# Film A was developed in Developer A at a pH of 11.6 for 80 seconds at 30° C. Film B was developed in Developer B for 80 seconds at 30° C. at pH levels of 11.6, 11.5 and 11.4. The pH's of the developing solutions were adjusted to the designated levels using concentrated potassium hydroxide and concentrated hydrochloric acid.
compound,measurement,value
"CCN(CC)CC(O)CO (stereo not shown) [3-diethylamino-1,2-propanediol]",booster activity (in words),highly effective booster compound
